The target of experiment [1] is T1, human IDO (IDO1-expressing HEK293 cells) (Homo sapiens, UniProt P14902).
T1 construct: expressed in transfected cells
Nature of the experiment: Cell based kynurenine assay, IDO1-expressing HEK293 cell clones. To be noted: IDO1-expressing HEK293 cells, 24 hours, geometric mean; read-out: HEK293 IDO1 Kynurenine GMean IC50 (μM) (Cellular Assay). In a few lines:
(§1)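 HEK293 clones stably expressing human IDO1 or human TDO (CMV promoter), 2.5×10^4 cells/well, given serial compound dilutions for 24 h. Kynurenine measured in supernatant; inhibition relative to cell/0.2% DMSO and media-only controls. IC50 by nonlinear regression.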

Experiment [2] deals with T2, human TDO (TDO-expressing HEK293 cells) (Homo sapiens, UniProt P48775).
T2 construct: expressed in transfected cells
T2 sequence (P48775 whole entry): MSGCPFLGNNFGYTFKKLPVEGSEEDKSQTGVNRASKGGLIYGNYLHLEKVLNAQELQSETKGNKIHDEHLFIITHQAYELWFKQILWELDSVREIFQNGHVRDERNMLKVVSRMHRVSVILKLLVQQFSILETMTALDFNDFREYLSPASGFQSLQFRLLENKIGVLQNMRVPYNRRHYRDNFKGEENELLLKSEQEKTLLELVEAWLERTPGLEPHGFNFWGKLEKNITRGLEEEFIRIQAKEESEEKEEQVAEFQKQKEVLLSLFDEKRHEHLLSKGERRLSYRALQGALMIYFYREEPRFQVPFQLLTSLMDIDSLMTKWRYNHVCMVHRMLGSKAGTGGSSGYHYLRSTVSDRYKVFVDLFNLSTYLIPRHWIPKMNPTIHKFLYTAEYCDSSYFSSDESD
Nature of the experiment: Cell based kynurenine assay, TDO-expressing HEK293 cell clones. To be noted: TDO-expressing HEK293 cells, 24 hours, geometric mean; read-out: HEK293 TDO Kynurenine GMean IC50 (μM) (Cellular Assay). In a few lines: as §1

Experiment [3] has as its target T3, Human Tryptophan 2,3-dioxygenase (TDO) (Homo sapiens, UniProt P48775).
T3 construct: His tag (N); made in house; host or cells: E. coli
Nature of the experiment: Human TDO enzymatic assay (kynurenine level). The class given is biochemical. To be noted: 1 nM TDO, 350 μM L-Trp; geometric mean; read-out: TDO GMean: IC50 (μM) (Biochemical Assay). In a few lines:
(§2)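 Compound is mixed with His-tagged enzyme from E. coli in pH 6.5 phosphate buffer containing ascorbate, methylene blue and catalase, at room temperature. IDO uses 6 nM enzyme and 10 μM Trp for 20 min. TDO uses 1 nM enzyme and 350 μM Trp for 70 min. TCA stops the reaction, and IC50 is derived from kynurenine levels.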

The target of experiment [4] is T4, Human Indoleamine 2,3-dioxygenase (IDO) (Homo sapiens, UniProt P14902).
T4 construct: His tag (N); made in house; host or cells: E. coli
T4 sequence (P14902 whole entry): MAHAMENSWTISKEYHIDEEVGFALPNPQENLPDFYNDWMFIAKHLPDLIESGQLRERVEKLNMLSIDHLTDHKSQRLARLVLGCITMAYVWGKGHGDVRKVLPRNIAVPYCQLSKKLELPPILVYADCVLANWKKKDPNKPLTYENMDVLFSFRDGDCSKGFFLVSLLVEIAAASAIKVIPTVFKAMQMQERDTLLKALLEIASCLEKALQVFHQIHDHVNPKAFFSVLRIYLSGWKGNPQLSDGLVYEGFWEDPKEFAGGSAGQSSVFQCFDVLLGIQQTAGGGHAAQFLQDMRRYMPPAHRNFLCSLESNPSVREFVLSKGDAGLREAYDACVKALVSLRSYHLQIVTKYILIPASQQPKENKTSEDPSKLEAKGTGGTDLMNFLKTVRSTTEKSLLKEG
Nature of the experiment: Human IDO enzymatic assay (kynurenine level). The class given is biochemical. To be noted: 6 nM IDO, 10 μM L-Trp; geometric mean; read-out: IDO1 GMean: IC50 (μM) (Biochemical Assay). In a few lines:
as §2

T1 sequence (P14902 whole entry): as above
T3 sequence (P48775 whole entry): as the sequence (P48775 whole entry) above

Regarding `O=C(CN1CCS(=O)(=O)CC1)N1CCC(C(F)(F)C(O)c2cc(Cl)cc3cn[nH]c23)CC1` (centres unmarked) [Compound P-0485, 1-(4-(2-(5-chloro-1H-indazol-7-yl)-1,1-difluoro-2-hydroxyethyl)piperidin-1-yl)-2-(1,1-dioxidothiomorpholino) ethan-1-one], the 50% inhibitory concentration (IC50) (usually the concentration that gives 50% inhibition) is 0.0001 to 10 µM in experiment [1], above 10 µM in experiment [2], 0.0001 to 10 µM in experiment [3] and 0.0001 to 10 µM in experiment [4].
With `CC(C)(C1CCN(C(=O)CN2CCCS2(=O)=O)CC1)C(O)c1cc(Cl)cc2cn[nH]c12` (centres unmarked) [Compound P-0486, 1-(4-(1-(5-chloro-1H-indazol-7-yl)-1-hydroxy-2-methylpropan-2-yl)piperidin-1-yl)-2-(1,1-dioxidoisothiazolidin-2-yl)ethan-1-one], the 50% inhibitory concentration (IC50) in experiment [1], in experiment [2], in experiment [3] and in experiment [4] was 0.0001 to 10 µM each time.
On to `CC(C)(C1CCN(C(=O)CN2CCS(=O)(=O)CC2)CC1)C(O)c1cc(Cl)cc2cn[nH]c12` (centres unmarked) [Compound P-0487, 1-(4-(1-(5-chloro-1H-indazol-7-yl)-1-hydroxy-2-methylpropan-2-yl)piperidin-1-yl)-2-(1,1-dioxidothiomorpholino) ethan-1-one], for which the IC50 in experiment [1], in experiment [2], in experiment [3] and in experiment [4] was 0.0001 to 10 µM in each case.
As to `O=C(Nc1cccc(Cl)c1)N1CCC(C(F)(F)C(O)c2cc(Cl)cc3cn[nH]c23)CC1` (centres unmarked) [Compound P-0488, 4-(2-(5-chloro-1H-indazol-7-yl)-1,1-difluoro-2-hydroxyethyl)-N-(3-chlorophenyl) piperidine-1-carboxamide], the 50% inhibitory concentration (IC50) in experiment [1], in experiment [2], in experiment [3] and in experiment [4] was 0.0001 to 10 µM each time.
With `O=C(CN1CCCS1(=O)=O)N1CCC(C(F)(F)C(O)c2cc(Cl)cc3cn[nH]c23)CC1` (centres unmarked) [Compound P-0489, 1-(4-(2-(5-chloro-1H-indazol-7-yl)-1,1-difluoro-2-hydroxyethyl)piperidin-1-yl)-2-(1,1-dioxidoisothiazolidin-2-yl)ethan-1-one], the IC50 in experiment [1], in experiment [2], in experiment [3] and in experiment [4] was 0.0001 to 10 µM throughout.
As for `CC(C)(C)OC(=O)N1CCC(C(F)(F)C(O)c2c3c(cc4cn[nH]c24)CC3)CC1` (centres unmarked) [Compound P-0490, tert-butyl 4-(2-(5,6-dihydro-1H-cyclobuta[f]indazol-7-yl)-1,1-difluoro-2-hydroxyethyl) piperidine-1-carboxylate], the concentration for half-maximal inhibition (IC50) in experiment [1], in experiment [2], in experiment [3] and in experiment [4] was 0.0001 to 10 µM throughout.
For the compound `CN1CCN(Cc2ccc(NC(=O)N3CCC(C(C)(C)C(O)c4cc(Cl)cc5cn[nH]c45)CC3)cc2)CC1` (centres unmarked) [Compound P-0491, 4-(1-(5-chloro-1H-indazol-7-yl)-1-hydroxy-2-methylpropan-2-yl)-N-(4-((4-methylpiperazin-1-yl)methyl)phenyl) piperidine-1-carboxamide], the IC50 in experiment [1], in experiment [2], in experiment [3] and in experiment [4] was 0.0001 to 10 µM throughout.
As to `CC(C)(C1CCN(C(=O)NCCN2CCCS2(=O)=O)CC1)C(O)c1cc(Cl)cc2cn[nH]c12` (centres unmarked) [Compound P-0492, 4-(1-(5-chloro-1H-indazol-7-yl)-1-hydroxy-2-methylpropan-2-yl)-N-(2-(1,1-dioxidoisothiazolidin-2-yl)ethyl)piperidine-1-carboxamide], the half-maximal inhibitory concentration (IC50) in experiment [1], in experiment [2], in experiment [3] and in experiment [4] was 0.0001 to 10 µM in each case.
Turning to `CC(C)(C1CCN(C(=O)NCCNS(C)(=O)=O)CC1)C(O)c1cc(Cl)cc2cn[nH]c12` (centres unmarked) [Compound P-0493, 4-(1-(5-chloro-1H-indazol-7-yl)-1-hydroxy-2-methylpropan-2-yl)-N-(2-(methylsulfonamido)ethyl)piperidine-1-carboxamide], the half-inhibitory concentration (IC50) in experiment [1], in experiment [2], in experiment [3] and in experiment [4] was 0.0001 to 10 µM in each case.
For `O=C(Cc1ccc(Cl)cc1)N1CCC(C(F)(F)C(O)c2cc(Cl)cc3cn[nH]c23)CC1` (centres unmarked) [Compound P-0494, 1-(4-(2-(5-chloro-1H-indazol-7-yl)-1,1-difluoro-2-hydroxyethyl)piperidin-1-yl)-2-(4-chlorophenyl)ethan-1-one], the IC50 in experiment [1], in experiment [2], in experiment [3] and in experiment [4] was 0.0001 to 10 µM throughout.
For `O=C(Cc1ccc(Cl)nc1)N1CCC(C(F)(F)C(O)c2cc(Cl)cc3cn[nH]c23)CC1` (centres unmarked) [Compound P-0495, 1-(4-(2-(5-chloro-1H-indazol-7-yl)-1,1-difluoro-2-hydroxyethyl)piperidin-1-y1)-2-(6-chloropyridin-3-yl)ethan-1-one], the 50% inhibitory concentration (IC50) in experiment [1], in experiment [2], in experiment [3] and in experiment [4] was 0.0001 to 10 µM in each case.
Turning to `COc1ccc(CC(=O)N2CCC(C(F)(F)C(O)c3cc(Cl)cc4cn[nH]c34)CC2)cc1` (centres unmarked) [Compound P-0496, 1-(4-(2-(5-chloro-1H-indazol-7-yl)-1,1-difluoro-2-hydroxyethyl)piperidin-1-yl)-2-(4-methoxyphenyl) ethan-1-one], the IC50 in experiment [1], in experiment [2], in experiment [3] and in experiment [4] was 0.0001 to 10 µM throughout.
On to `CC(C)(C1CCN(C(=O)CN2CCS(=O)(=O)CC2)CC1)[C@H](O)c1cc(Cl)cc2cn[nH]c12` [Compound P-0497, (S)-1-(4-(1-(5-chloro-1H-indazol-7-yl)-1-hydroxy-2-methylpropan-2-yl)piperidin-l-yl)-2-(1,1-dioxidothiomorpholino) ethan-1-one], for which the IC50 in experiment [1], in experiment [2], in experiment [3] and in experiment [4] was 0.0001 to 10 µM throughout.
Consider `CC(C)(C1CCN(C(=O)C2CCC2)CC1)[C@H](O)c1cc(Cl)cc2cn[nH]c12` [Compound P-0498, (S)-(4-(1-(5-chloro-1H-indazol-7-yl)-1-hydroxy-2-methylpropan-2-yl)piperidin-1-yl)(cyclobutyl)methanone], for which the IC50 in experiment [1], in experiment [2], in experiment [3] and in experiment [4] was 0.0001 to 10 µM each time.
For `CC(C)(C1CCN(C(=O)NCCO)CC1)[C@H](O)c1cc(Cl)cc2cn[nH]c12` [Compound P-0499, (S)-4-(1-(5-chloro-1H-indazol-7-yl)-1-hydroxy-2-methylpropan-2-yl)-N-(2-hydroxyethyl)piperidine-1-carboxamide], the IC50 in experiment [1], in experiment [2], in experiment [3] and in experiment [4] was 0.0001 to 10 µM in each case.
Take `CC(C)(C1CCN(C(=O)CN2CCOCC2)CC1)[C@H](O)c1cc(Cl)cc2cn[nH]c12` [Compound P-0501, (S)-1-(4-(1-(5-chloro-1H-indazol-7-yl)-1-hydroxy-2-methylpropan-2-yl)piperidin-1-yl)-2-morpholinoethan-1-one]: the IC50 in experiment [1], in experiment [2], in experiment [3] and in experiment [4] was 0.0001 to 10 µM each time.
With `CC(C)(C1CCN(C(=O)CC2CCS(=O)(=O)CC2)CC1)[C@H](O)c1cc(Cl)cc2cn[nH]c12` [Compound P-0502, (S)-1-(4-(1-(5-chloro-1H-indazol-7-yl)-1-hydroxy-2-methylpropan-2-yl)piperidin-1-yl)-2-(1,1-dioxidotetrahydro-2H-thiopyran-4-yl)ethan-1-one], the 50% inhibitory concentration (IC50) in experiment [1], in experiment [2], in experiment [3] and in experiment [4] was 0.0001 to 10 µM in each case.
Regarding `CC(C)(C1CCN(C(=O)Nc2ccc(C#N)cc2)CC1)[C@H](O)c1c(F)c(Cl)cc2cn[nH]c12` [Compound P-0503, (S)-4-(1-(5-chloro-6-fluoro-1H-indazol-7-yl)-1-hydroxy-2-methylpropan-2-yl)-N-(4-cyanophenyl) piperidine-1-carboxamide], the IC50 in experiment [1], in experiment [2], in experiment [3] and in experiment [4] was 0.0001 to 10 µM throughout.
As to `CC(C)(C1CCN(C(=O)C2CC2)CC1)[C@H](O)c1c(F)c(Cl)cc2cn[nH]c12` [Compound P-0504, (S)-(4-(1-(5-chloro-6-fluoro-1H-indazol-7-yl)-1-hydroxy-2-methylpropan-2-yl)piperidin-1-yl)(cyclopropyl) methanone], the IC50 in experiment [1], in experiment [2], in experiment [3] and in experiment [4] was 0.0001 to 10 µM each time.
For `CC(C)(C1CCN(C(=O)CC#N)CC1)[C@H](O)c1c(F)c(Cl)cc2cn[nH]c12` [Compound P-0505, (S)-3-(4-(1-(5-chloro-6-fluoro-1H-indazol-7-yl)-1-hydroxy-2-methylpropan-2-yl)piperidin-1-yl)-3-oxopropanenitrile], the IC50 in experiment [1], in experiment [2], in experiment [3] and in experiment [4] was 0.0001 to 10 µM throughout.

The record behind these values is US10508085B2, “Compounds and methods for IDO and TDO modulation, and indications therefor” (Plexxikon Inc., priority 2016, dated 2019).
